Test results from patent US11548871B2, “Triazole carbamate pyridyl sulfonamides as LPA receptor antagonists and uses thereof” (Gilead Sciences, Inc., priority 2019, dated 2023).

These compounds were tested against human LPAR1 (Homo sapiens, UniProt Q92633) (assay: LPAR1 intracellular calcium mobilization assay (antagonist mode)).
Chain of human LPAR1 (Q92633 whole entry): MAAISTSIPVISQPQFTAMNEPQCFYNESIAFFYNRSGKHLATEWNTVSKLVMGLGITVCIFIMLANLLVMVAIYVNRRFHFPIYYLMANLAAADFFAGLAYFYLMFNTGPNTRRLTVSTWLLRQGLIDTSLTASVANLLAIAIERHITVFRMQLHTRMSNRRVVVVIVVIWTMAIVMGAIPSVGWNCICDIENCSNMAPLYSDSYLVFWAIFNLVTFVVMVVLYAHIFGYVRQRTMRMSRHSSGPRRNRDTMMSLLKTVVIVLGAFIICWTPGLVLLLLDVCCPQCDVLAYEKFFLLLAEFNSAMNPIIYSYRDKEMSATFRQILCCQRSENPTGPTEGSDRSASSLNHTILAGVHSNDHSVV
Procedure: In vitro LPAR1 activity was measured in an intracellular calcium mobilization assay.
Prior to testing cell media were aspirated from the cells and replaced with 20 μL Calcium Dye Loading Buffer (DiscoverX Calcium NoWash^PLUS Assay Kit cat #90-0091) and 2.5 mM Probenecid (Sigma Aldrich cat #P8761, prepared fresh) in HBSS/20 mM Hepes for 60 min at 37° C.
For agonist dose curves, cells were removed from the incubator after dye loading and 10 μL HBSS/20 mM Hepes including 3× vehicle was added. Cells were incubated for 30 min at room temperature in the dark to equilibrate plate temperatures. An intermediate LPA dilution series was prepared in assay buffer to generate 4× stock. Calcium mobilization was monitored on a FLIPR Tetra (MDS, San Jose, Calif.) for 2 min and 10 μL 4×LPA in HBSS/20 mM Hepes was added to the cells 5 s into the assay.
An intermediate antagonist dilution series was prepared as 3× samples in assay buffer. After dye loading, cells were removed from the incubator and 10 μL 3× antagonist was added. Cells were incubated for 30 min at room temperature in the dark to equilibrate plate temperatures. The final vehicle (DMSO) concentration was 1%. Compound antagonist activities was measured on a FLIPR Tetra. Calcium mobilization was monitored for 2 min and 10 μL EC80 agonist in HBSS/20 mM Hepes was added to the cells 5 s into the assay. Compound activity was analyzed using CBIS data analysis suite (ChemInnovation Software, San Diego, Calif.).

Row | Compound | EC50
1 | Cc1nc(-c2nnn(C)c2NC(=O)O[C@H](C)c2cc(Br)cnc2F)ccc1NS(C)(=O)=O [Compound 125, (R)-1-(5-bromo-2-fluoropyridin-3-yl)ethyl (1-methyl-4-(6-methyl-5-(methylsulfonamido)pyridin-2-yl)-1H-1,2,3-triazol-5-yl)carbamate] | 0.187 µM
2 | Cc1nc(-c2nnn(C)c2NC(=O)OC(C)c2cc(F)cnc2Br)ccc1NS(C)(=O)=O (centres unmarked) [Compound 126, 1-(2-bromo-5-fluoropyridin-3-yl)ethyl (1-methyl-4-(6-methyl-5-(methylsulfonamido)pyridin-2-yl)-1H-1,2,3-triazol-5-yl)carbamate] | 0.232 µM
3 | COc1nc(-c2nnn(C)c2NC(=O)O[C@H](C)c2cccnc2Cl)ccc1NS(C)(=O)=O [Compound 146, (R)-1-(2-chloropyridin-3-yl)ethyl (4-(6-methoxy-5-(methylsulfonamido)pyridin-2-yl)-1-methyl-1H-1,2,3-triazol-5-yl)carbamate] | 0.58 µM
4 | CCn1nnc(-c2ccc(NS(C)(=O)=O)c(C)n2)c1NC(=O)O[C@H](C)c1cccnc1Cl [Compound 157, (R)-1-(2-chloropyridin-3-yl)ethyl (1-ethyl-4-(6-methyl-5-(methylsulfonamido)pyridin-2-yl)-1H-1,2,3-triazol-5-yl)carbamate] | 0.374 µM
5 | Cc1nc(-c2nnn(C)c2NC(=O)O[C@H](C)c2cccc(F)c2)ccc1NS(=O)(=O)C1COC1 [Compound 109, (R)-1-(3-fluoro-phenyl)ethyl (1-methyl-4-(6-methyl-5-(oxetane-3-sulfonamido)pyridin-2-yl)-1H-1,2,3-triazol-5-yl)carbamate] | 0.705 µM
6 | Cc1nc(-c2nnn(C)c2NC(=O)OC(C)c2ncccc2Cl)ccc1NS(C)(=O)=O (centres unmarked) [Compound 131, 1-(3-chloropyridin-2-yl)ethyl (1-methyl-4-(6-methyl-5-(methylsulfonamido)pyridin-2-yl)-1H-1,2,3-triazol-5-yl)carbamate] | 0.675 µM
7 | Cc1cccc(COC(=O)Nc2c(-c3ccc(NS(C)(=O)=O)c(C)n3)nnn2C)c1 [Compound 37, 3-methylbenzyl (1-methyl-4-(6-methyl-5-(methylsulfonamido)pyridin-2-yl)-1H-1,2,3-triazol-5-yl)carbamate] | 0.172 µM
8 | CCc1ncccc1[C@@H](C)OC(=O)Nc1c(-c2ccc(NS(C)(=O)=O)c(C)n2)nnn1C [Compound 151, (R)-1-(2-ethylpyridin-3-yl)ethyl (1-methyl-4-(6-methyl-5-(methylsulfonamido)pyridin-2-yl)-1H-1,2,3-triazol-5-yl)carbamate] | 0.588 µM
9 | Cc1nc(-c2nnn(C)c2NC(=O)OC(C)c2cccnc2F)ccc1NS(C)(=O)=O (centres unmarked) [Compound 79, 1-(2-fluoropyridin-3-yl)ethyl (1-methyl-4-(6-methyl-5-(methylsulfonamido)pyridin-2-yl)-1H-1,2,3-triazol-5-yl)carbamate] | 0.589 µM
10 | Cc1nc(-c2nnn(C)c2NC(=O)O[C@H](CCl)c2ccccc2)ccc1NS(C)(=O)=O [Compound 49, (S)-2-chloro-1-phenylethyl (1-methyl-4-(6-methyl-5-(methylsulfonamido)pyridin-2-yl)-1H-1,2,3-triazol-5-yl)carbamate] | 0.203 µM
11 | Cc1ncc(S(=O)(=O)Nc2ccc(-c3nnn(C)c3NC(=O)O[C@H](C)c3cccc(F)c3)nc2C)s1 [Compound 107, (R)-1-(3-fluoro-phenyl)ethyl (1-methyl-4-(6-methyl-5-((2-methylthiazole)-5-sulfonamido)pyridin-2-yl)-1H-1,2,3-triazol-5-yl)carbamate] | 1.12 µM
12 | Cc1nc(-c2nnn(C)c2NC(=O)O[C@H](C)c2ccnn2C)ccc1NS(C)(=O)=O [Compound 135, (R)-1-(1-methyl-1H-pyrazol-5-yl)ethyl (1-methyl-4-(6-methyl-5-(methylsulfonamido)pyridin-2-yl)-1H-1,2,3-triazol-5-yl)carbamate] | 2.98 µM
13 | Cc1nc(-c2nnn(C)c2NC(=O)OC(C)c2cnc(F)cc2Cl)ccc1NS(C)(=O)=O (centres unmarked) [Compound 129, 1-(4-chloro-6-fluoropyridin-3-yl)ethyl (1-methyl-4-(6-methyl-5-(methylsulfonamido)pyridin-2-yl)-1H-1,2,3-triazol-5-yl)carbamate] | 0.271 µM
14 | Cc1nc(-c2nnn(C)c2NC(=O)O[C@H](C)c2cncnc2C)ccc1NS(C)(=O)=O [Compound 70, (R)-1-(4-methylpyrimidin-5-yl)ethyl (1-methyl-4-(6-methyl-5-(methylsulfonamido)pyridin-2-yl)-1H-1,2,3-triazol-5-yl)carbamate] | 1.59 µM
15 | Cc1nc(-c2nnn(C)c2NC(=O)N[C@@H](c2ccccc2)C(F)F)ccc1NS(C)(=O)=O [Compound 65, (S)-N-(6-(5-(3-(2,2-difluoro-1-phenylethyl)ureido)-1-methyl-1H-1,2,3-triazol-4-yl)-2-methylpyridin-3-yl)methanesulfonamide] | 1.02 µM
16 | Cc1nc(-c2nnn(C)c2NC(=O)OC(C)c2cc(Br)cnc2Cl)ccc1NS(C)(=O)=O (centres unmarked) [Compound 130, 1-(5-bromo-2-chloropyridin-3-yl)ethyl (1-methyl-4-(6-methyl-5-(methylsulfonamido)pyridin-2-yl)-1H-1,2,3-triazol-5-yl)carbamate] | 0.272 µM

More lines, now with the values ahead:

Row | EC50 | Compound
17 | 0.0563 µM | Cc1nc(-c2nnn(C)c2NC(=O)O[C@H](C)c2ccccc2Cl)ccc1NS(=O)(=O)C1CC1 [Compound 103, (R)-1-(2-chloro-phenyl)ethyl(4-(5-(cyclopropane-sulfonamido)-6-methylpyridin-2-yl)-1-methyl-1H-1,2,3-triazol-5-yl)carbamate]
18 | 0.0649 µM | CSc1ccccc1[C@@H](C)OC(=O)Nc1c(-c2ccc(NS(C)(=O)=O)c(C)n2)nnn1C [Compound 55, (R)-1-(2-(methylthio)phenyl)ethyl (1-methyl-4-(6-methyl-5-(methylsulfonamido)pyridin-2-yl)-1H-1,2,3-triazol-5-yl)carbamate]
19 | 0.0421 µM | C[C@@H](OC(=O)Nc1c(-c2ccc(NS(C)(=O)=O)cn2)nnn1C)c1cc(Cl)cnc1F [Compound 111, (R)-1-(5-chloro-2-fluoropyridin-3-yl)ethyl (1-methyl-4-(5-(methylsulfonamido)pyridin-2-yl)-1H-1,2,3-triazol-5-yl)carbamate]
20 | 0.132 µM | CCCCC[C@H](OC(=O)Nc1c(-c2ccc(NS(C)(=O)=O)c(C)n2)nnn1C)C(F)(F)F [Compound 47, (S)-1,1,1-trifluoroheptan-2-yl (1-methyl-4-(6-methyl-5-(methylsulfonamido)pyridin-2-yl)-1H-1,2,3-triazol-5-yl)carbamate]
21 | 0.0485 µM | Cc1nc(-c2nnn(C)c2NC(=O)O[C@@H](c2ccccc2)C(F)F)ccc1NS(C)(=O)=O [Compound 57, (S)-2,2-difluoro-1-phenylethyl (1-methyl-4-(6-methyl-5-(methylsulfonamido)pyridin-2-yl)-1H-1,2,3-triazol-5-yl)carbamate]
22 | 0.114 µM | Cc1nc(-c2nnn(CC#N)c2NC(=O)O[C@@H](c2ccccc2)C(F)F)ccc1NS(C)(=O)=O [Compound 100, (S)-2,2-difluoro-1-phenylethyl(1-(cyanomethyl)-4-(6-methyl-5-(methylsulfonamido)pyridin-2-yl)-1H-1,2,3-triazol-5-yl)carbamate]
23 | 0.0578 µM | C[C@@H](OC(=O)Nc1c(-c2ccc(NS(C)(=O)=O)cn2)nnn1C)c1cnsc1Cl [Compound 118, (R)-1-(5-chloroisothiazol-4-yl)ethyl (1-methyl-4-(5-(methylsulfonamido)pyridin-2-yl)-1H-1,2,3-triazol-5-yl)carbamate]
24 | 0.112 µM | COc1nc(-c2nnn(C)c2NC(=O)O[C@@H](c2ccccc2)C(F)F)ccc1NS(C)(=O)=O [Compound 7, (S)-2,2-difluoro-1-phenylethyl (4-(6-methoxy-5-(methylsulfonamido)pyridin-2-yl)-1-methyl-1H-1,2,3-triazol-5-yl)carbamate]
25 | 0.0053 µM | C[C@@H](OC(=O)Nc1c(-c2ccc(NS(C)(=O)=O)cn2)nnn1C)c1ccccc1F [Compound 16, (R)-1-(2-fluorophenyl)ethyl (1-methyl-4-(5-(methylsulfonamido)pyridin-2-yl)-1H-1,2,3-triazol-5-yl)carbamate]
26 | 0.0599 µM | Cc1nc(-c2nnn(C)c2NC(=O)O[C@H](C)c2cc(Cl)ccc2F)ccc1NS(C)(=O)=O [Compound 56, (R)-1-(5-chloro-2-fluorophenyl)ethyl (1-methyl-4-(6-methyl-5-(methylsulfonamido)pyridin-2-yl)-1H-1,2,3-triazol-5-yl)carbamate]
27 | 0.171 µM | CCCC[C@@H](C)OC(=O)Nc1c(-c2ccc(NS(C)(=O)=O)c(C)n2)nnn1C [Compound 28, (R)-hexan-2-yl (1-methyl-4-(6-methyl-5-(methylsulfonamido)pyridin-2-yl)-1H-1,2,3-triazol-5-yl)carbamate]
28 | 0.0378 µM | Cn1nnc(-c2ccc(NS(C)(=O)=O)cn2)c1NC(=O)OCc1cccc(F)c1 [Compound 21, 3-fluorobenzyl (1-methyl-4-(5-(methylsulfonamido)pyridin-2-yl)-1H-1,2,3-triazol-5-yl)carbamate]
29 | 0.0082 µM | Cn1nnc(-c2ccc(NS(C)(=O)=O)cn2)c1NC(=O)O[C@@H](c1ccccc1)C(F)F [Compound 15, (S)-2,2-difluoro-1-phenylethyl (1-methyl-4-(5-(methylsulfonamido)pyridin-2-yl)-1H-1,2,3-triazol-5-yl)carbamate]
30 | 0.0781 µM | C[C@@H](OC(=O)Nc1c(-c2cc(F)c(NS(C)(=O)=O)cn2)nnn1C)c1cccnc1Cl [Compound 158, (R)-1-(2-chloropyridin-3-yl)ethyl (4-(4-fluoro-5-(methylsulfonamido)pyridin-2-yl)-1-methyl-1H-1,2,3-triazol-5-yl)carbamate]
31 | 0.127 µM | CCc1nc(-c2nnn(C)c2NC(=O)O[C@H](C)c2cc(F)cnc2Cl)ccc1NS(C)(=O)=O [Compound 147, (R)-1-(2-chloro-5-fluoropyridin-3-yl)ethyl (4-(6-ethyl-5-(methylsulfonamido)pyridin-2-yl)-1-methyl-1H-1,2,3-triazol-5-yl)carbamate]
32 | 0.0341 µM | Cc1nc(-c2nnn(C)c2NC(=O)O[C@@H](c2cc(F)ccc2F)C(F)F)ccc1NS(C)(=O)=O [Compound 26, (S)-1-(2,5-difluorophenyl)-2,2-difluoroethyl (1-methyl-4-(6-methyl-5-(methylsulfonamido)pyridin-2-yl)-1H-1,2,3-triazol-5-yl)carbamate]
